Laboratory results taken from patent US20070142341A1, “Use of steroid derivatives for the treatment of angiotensin ll related disease e.g. cardiovascular and proliferative disorders” (priority 2003, published 2007).

What was measured:
[1] = tested on: rat aortic smooth muscle cells (RASMC); assay: 3H-methylthymidine incorporation into rat aortic smooth muscle cells stimulated with Ang II; type: cell-based; conditions: for Tritiated thymidine uptake / Effect on tritium incorporation induced by Ang II: 48 hours; for Tritiated thymidine uptake: serum-free medium, control 57.6, Ang II alone 87.1; for Effect on tritium incorporation induced by Ang II: Ang II 10^−7 M
Text: (§1) Aortic smooth muscle cells (ASMCs) were isolated from rat thoracic and abdominal artery (RASMC) and bovine aorta (BASMC) by the media explant method and cultured over several passages.
(§2) Segments of both abdominal and thoracic aortas were obtained from rats by careful dissection from killed rats. Segments of aorta were obtained from calves under anaesthesia. The segments of aorta were placed in a depression slide containing tissue culture medium, after which the adventitia and the outer portion of each segment was carefully removed under a dissecting microscope. The remaining inner portion of the tissue and the intima were removed to a separate dissecting dish and washed several times with fresh culture medium. At this point each segment was cut into approximately 1 mm squares and placed on 25 cm^2 tissue culture flask. The flasks were loosely capped and placed in a humidified CO2 incubator After two hours, 4 ml of RPMI-1640 culture medium supplemented with 100 units/ml of penicillin, […] streptomycin, […] L-glutamine and 20% […] was carefully added to the flasks without dislodging the tissue. Samples were fed with fresh medium after one week. The cells from the explants were relatively confluent within a period of approximately 2 weeks. They were then rinsed with PBS, and subsequently trypsinized with a solution of 0.125% trypsin and 0.02% EDTA in PBS for 1-2 min al 37° C. The resulting suspension of cells was pipetted into 75 cm^2 tissue culture flasks containing 10 ml culture medium and incubated as above.
(§3) Experiments were performed with cells from passages 3 to 5.
^3H-methylthymidine incorporation into rat aortic smooth muscle cells (RASMC). Quiescent RASMC (0.3×10^5/ml/well) were incubated with serum-free medium (SFM) containing Ang II (10^−7 M) with or without different concentrations of trilostane for 48 hours. The results are shown in Table 1. ^3H-methylthymidine incorporation into RASMC was increased in the Ang II treated group.
Using the same tritiated thymidine uptake methodology as for Example 1, the actions of Losartan on angiotensin II-stimulated cell proliferation were tested in the presence and absence of trilostane.

myocardial injury = conditions: rat model, angiotensin-induced injury, treatment with eplerenone; cited from earlier work
[2] = tested on: LV dysfunction and remodeling; conditions: dogs with chronic heart failure, 3 months of treatment, cited from earlier work
[3] = tested on: severe congestive heart failure (CHF); conditions: patients with severe congestive heart failure, given in addition to ACE inhibitors; cited from earlier work
[4] = tested on: circulating adrenal steroids; conditions: patients with normally functioning adrenals; cited from earlier work
[5] = tested on: circulating adrenal steroids; assay: Circulating plasma adrenal steroids in whole, healthy rats (radioimmunoassay, FIG. 1); type: in vivo, rat
Procedure: Trilostane has been used in treatments that are aimed at suppressing adrenal steroid secretion. Examples of adrenal steroids include cortisol, aldosterone and corticosterone. In practice, in patients with normally functioning adrenals, circulating adrenal steroids are reduced only at high trilostane dosage levels upwards of 8 to 10 mg/kg/day equivalent, and this is the regime most frequently used (Beardwell et al. 1985, Clin Endocrinol (Oxf), 23, 413-21, Engelhardt and Weber 1994, J Steroid Biochem Mol Biol, 40, 261-7). […] This can be shown by testing the levels of circulating adrenal steroids pre- and post-treatment and assessing whether or not the concentrations of adrenal steroids have been reduced. The levels of circulating adrenal steroids in the plasma can be tested by collecting circulating blood from a vein. Plasma is obtained by centrifugation and plasma steroid (for example, cortisol and aldesterone for humans, corticosterone and aldosterone in rats) is assayed using a conventional radioimmunoassay. Suitable corticosterone radioammunoassay kits are available from Amersham Biosciences UK Limited. Suitable aldosterone radioimmunoassay kits are available from Diagnostic Products Corporation.

AT1 receptor mRNA = AT1 receptor mRNA expression by RT-PCR and real-time quantitative RT-PCR in RASMC (FIG. 4); type: cell-based, rat; conditions: 48 hours, trilostane added to angiotensin II, FIG. 4, P<0.01
Procedure: […] Real-time RT-PCR was performed using Brilliant SYBR Green QRT-PCR Master Mix Kit, 1-step based on real-time detection of accumulated fluorescence (M×300P, Stratagene, Amsterdam). Results are means, SEM too small to show. **=P<0.01.

[6] = tested on: circulating adrenal steroids; assay: Circulating corticosterone and aldosterone in male Wistar rats after 5 days of trilostane (FIG. 3a, b); type: in vivo, rat; conditions: trilostane 4 mg/kg per day for 5 days, versus vehicle control
Procedure: Male Wistar rats (˜500 g) were treated with 0.1 ml ethanol in cotton seed oil with trilostane 4 mg/kg per day for 5 days. Control animals received the vehicle alone. Animals were then treated with 0.1 ml (500 u) heparin IP, before killing by stunning and cervical dislocation. Blood was collected from neck vessels, centrifuged to obtain plasma which was stored at −20° C. until required for steroid analysis. Corticosterone and aldosterone concentrations were assayed using commercially available kits (Diagnostic Systems Laboratories Inc., Webster, Tex., USA). Circulating concentrations of corticosterone (FIG. 3 (a)) and aldosterone (FIG. 3(b)) are shown for control animals and animals receiving trilostane treatment.

[7] = tested on: rat aortic smooth muscle cells (RASMC); assay: Cell count for rat aortic smooth muscle cells stimulated with Ang II; type: cell-based; conditions: 48 hours; for Cell Count: 20% FBS RPMI-1640, control 12.00 × 10^4, Ang II alone 21.30 × 10^4; for Effect on Ang II stimulated increase in cell number: Ang II 10^−7 M
Text: as §1, §2, §3
Cell count for rat aortic smooth muscle cells (RASMC). RASMC (0.5×10^5/ml/well) were incubated with 20% FBS RPMI-1640 medium containing Ang II (10^−7 M) with or without different concentrations of trilostane for 48 hours.

[8] = tested on: vascular smooth muscle cells; assay: Fura-2 [Ca2+]i signal response to angiotensin II in smooth muscle cells cultured from trilostane treated rats; type: cell-based, rat; set-up: key: + = calcium response; − = no response; conditions: cells (TTSMC) from rats given trilostane 4 mg/kg per day for 5 days
Procedure: Male Wistar rats (˜500 g) were treated with 0.1 ml ethanol in cotton seed oil with trilostane 4 mg/kg per day for 5 days. Control animals received the vehicle alone. Animals were then treated with 0.1 ml (500 u) heparin IP, before killing by stunning and cervical dislocation. Blood was collected from neck vessels, centrifuged to obtain plasma which was stored at −20° C. until required for steroid analysis. Corticosterone and aldosterone concentrations were assayed using commercially available kits (Diagnostic Systems Laboratories Inc., Webster, Tex., USA). Circulating concentrations of corticosterone (FIG. 3 (a)) and aldosterone (FIG. 3(b)) are shown for control animals and animals receiving trilostane treatment. […] Primary cultures were established of RASMC obtained from trilostane treated and control animals, using the established methods. For [Ca^2+]i measurement, the cells were loaded with 1 μM fura-2 for 30 min in medium-modified Krebs-Ringer bicarbonate solution (3.6 mM K^+, 1.2 mM Ca^2+, 0.5 mM Mg^2+, 5 mM Hepes and 20 mM HCO^−) at 37° C. For simultaneous measurements of measuring the fluorescence of fura-2, the cells plated on coverslips were mounted on the stage of an inverted microscope (Zeiss) in a modified Krebs-Ringer bicarbonate solution. The excitation wavelengths were 340 and 380 nm, and emission was detected at 510 nm. [Ca^2+]i was calculated from the ratio of fluorescence intensities at excitation wavelengths of 340 and 380 nm. Fields of cells, ˜10 cells per field, were tested from control and trilostane treated animals. The results are shown in Table 3 and FIGS. (c) and (d) wherein the arrow indicates the time of application of angiotensin II. Characteristic calcium signals obtained by stimulation of vascular smooth muscle cells from control animals (FIG. 3(c)) and trilostane treated animals (FIG. 3(d)) by 10 nmol/L angiotensin II.

[9] = Ang II 10^−7 M + trilostane 10^−5 M
[10] = Ang II 10^−7 M + trilostane 10^−6 M
[11] = Ang II 10^−7 M + trilostane 10^−7 M
[12] = Ang II 10^−7 M + trilostane 10^−8 M
[13] = Ang II 10^−7 M + trilostane 10^−9 M
[14] = trilostane at 10^−6 and 10^−5 M
[15] = trilostane at 10^−9, 10^−8 and 10^−7 M

Compound: CCCCc1nc(Cl)c(CO)n1Cc1ccc(-c2ccccc2-c2nn[nH]n2)cc1 [Losartan]
- Action on angiotensin II-stimulated cell proliferation (tritiated thymidine uptake) ([1]; Losartan with angiotensin II, absence of trilostane, FIG. 2): significantly eliminated the stimulatory action of angiotensin II
- Cell proliferation (tritiated thymidine uptake) compared with controls ([1]; losartan alone group, FIG. 2): not different from controls

Compound: COC(=O)[C@@H]1CC2=CC(=O)CC[C@]2(C)[C@@]23O[C@@H]2C[C@@]2(C)[C@@H](CC[C@@]24CCC(=O)O4)[C@H]13 [eplerenone]
- COX-2 expression in the media of coronary arteries (myocardial injury): markedly attenuated
- Myocardial injury (myocardial injury): markedly attenuated
- Osteopontin expression in the media of coronary arteries (myocardial injury): markedly attenuated
- Reduction in cardiomyocyte cross-sectional area ([2]; compared with control): 28%
- Reduction of volume fraction of reactive interstitial fibrosis ([2]; compared with control): 37%
- Reduction of volume fraction of replacement fibrosis ([2]; compared with control): 34%
- LV end-diastolic wall stress ([2]; increased significantly in control dogs): decreased significantly
- End-diastolic volume, end-systolic volume, and EF ([2]; volumes increased significantly in control dogs): remained unchanged

Compound: CC(=O)S[C@@H]1CC2=CC(=O)CC[C@]2(C)[C@H]2CC[C@@]3(C)[C@@H](CC[C@@]34CCC(=O)O4)[C@H]12 [spironolactone]
- Mortality [3]: significantly reduced mortality

Compound: C[C@]12CC[C@H]3[C@@H](CC[C@@]45O[C@@H]4C(O)=C(C#N)C[C@]35C)[C@@H]1CC[C@@H]2O [trilostane, (4α,5α-17β)-4,5-epoxy-3,17-dihydroxyandrost-2-ene-2carbonitrile]
- Dosage level at which circulating adrenal steroids are reduced [4]: 8 to 10 mg/kg/day
- Tritiated thymidine uptake [1, 9]: 42.7 dpm
- Tritiated thymidine uptake [1, 10]: 74.9 dpm
- Tritiated thymidine uptake [1, 11]: 89.1 dpm
- Tritiated thymidine uptake [1, 12]: 101.88 dpm
- Tritiated thymidine uptake [1, 13]: 96.7 dpm
- Cell proliferation (tritiated thymidine uptake) ([1]; trilostane additionally present with Losartan, FIG. 2, P<0.05 / P<0.01): decreased cell proliferation still further to less than control values
- Effect on tritium incorporation induced by Ang II [1, 14]: inhibited
- Effect on tritium incorporation induced by Ang II [1, 15]: not at 10^−9, 10^−8 and 10^−7 M
- Circulating corticosterone levels ([5]; rats, trilostane 4 mg/kg/day or 8 mg/kg/day): Neither dose (4 mg/kg/day or 8 mg/kg/day) affects circulating corticosterone levels
- Concentrations of aldosterone in circulating plasma ([5]; rats, trilostane 4 mg/kg/day, FIG. 1b): does not reduce concentrations of aldosterone in circulating plasma
- Concentrations of aldosterone in circulating plasma ([5]; whole, healthy rats, trilostane 8 mg/kg/day, FIG. 1a): reduces concentrations of aldosterone in circulating plasma
- mRNA transcription of the gene coding for the angiotensin II type 1 receptor (AT1) (AT1 receptor mRNA): reduced even further
- Circulating concentrations of corticosterone ([6]; FIG. 3(a)): no significant differences
- Circulating concentrations of aldosterone ([6]; FIG. 3(b)): no significant differences
- Cell Count [7, 9]: 14.25 × 10^4
- Cell Count [7, 10]: 14.00 × 10^4
- Cell Count [7, 11]: 20.00 × 10^4
- Cell Count [7, 12]: 21.95 × 10^4
- Cell Count [7, 13]: 21.00 × 10^4
- Effect on Ang II stimulated increase in cell number [7, 14]: inhibited
- Effect on Ang II stimulated increase in cell number [7, 15]: not at 10^−9, 10^−8 and 10^−7 M
- Calcium signal response to angiotensin II ([8]; Ang II 10^−6 M): +
- Calcium signal response to angiotensin II ([8]; Ang II 10^−7 M): −
- Calcium signal response to angiotensin II ([8]; Ang II 10^−8 M, control cells (NSMC) +): −
- Calcium signal response to angiotensin II ([8]; Ang II 10^−9 M, control cells (NSMC) −): −
- Calcium signal response to angiotensin II ([8]; Ang II 10^−10 M, control cells (NSMC) −): −
- Calcium signal response to angiotensin II ([8]; Ang II 10^−11 M, control cells (NSMC) −): −
